Assay results published in US20260199239A1, “IONIZABLE LIPIDS WITH MALONATE TAILS” (ModernaTX, Inc., priority 2022, published 2026).
Where “and” joins values, the source holds several entries; their conditions need not be identical. Identical values can stand only once.

How the values were obtained:
[1] = Endotoxin content of LNP formulation; conditions: LNP lipid:PEG-1:DSPC:Cholesterol 48:2:11:39, hEPO mRNA
Text: (§1) LNPs comprising ionizable lipids described herein were formulated according to Table 2 and the following general procedure.

[2] = LNP particle size and polydispersity index (PDI); assay type: physicochemical; conditions: LNP lipid:PEG-1:DSPC:Cholesterol 48:2:11:39, hEPO mRNA, 20 mM Tris 8% Sucrose pH 7.4
Description: A Zetasizer Nano ZS (Malvern Instruments Ltd, Malvern, Worcestershire, UK) can be used to determine the particle size, the polydispersity index (PDI) and the zeta potential of the nanoparticle compositions in 1×PBS in determining particle size and 15 mM PBS in determining zeta potential.
LNPs may be characterized by a variety of methods. For example, microscopy (e.g., transmission electron microscopy or scanning electron microscopy) may be used to examine the morphology and size distribution of a nanoparticle composition. Dynamic light scattering or potentiometry (e.g., potentiometric titrations) may be used to measure zeta potentials. Dynamic light scattering may also be utilized to determine particle sizes. Instruments such as the Zetasizer Nano ZS (Malvern Instruments Ltd, Malvern, Worcestershire, UK) may also be used to measure multiple characteristics of a nanoparticle composition, such as particle size, polydispersity index, and zeta potential.
as §1
(§2) General procedure for one-pot LNP formation: Lipid stock solutions in ethanol are mixed with mRNA in 25 mM acetate solution at a 3:1 ratio in a microfluidic mixer. The resulting LNPs, which are at approximately pH 5 and 25% EtOH, are buffer exchanged by dialysis into the storage buffer. The LNP solutions are then concentrated by Amicon® and purified by a 0.2 uM sterile filter.

pH of LNP formulation = assay type: physicochemical; conditions: LNP formulation in 20 mM Tris 8% Sucrose storage buffer
Text: as §1

[3] = Osmolality of LNP formulation; assay type: physicochemical; conditions: LNP formulation in 20 mM Tris 8% Sucrose storage buffer
Text: as §1

hEPO protein expression = hEPO protein expression in vivo after systemic administration of LNPs
Description: In order to monitor how effectively various nanoparticle compositions deliver therapeutic and/or prophylactic agents to targeted cells, different nanoparticle compositions including a particular therapeutic and/or prophylactic agent (for example, a modified or naturally occurring RNA such as an mRNA) are prepared and administered to animal populations. Animals (e.g., mice, rats, or non-human primates) are intravenously, intramuscularly, intraarterially, or intratumorally administered a single dose including a nanoparticle composition comprising a lipid of the disclosure and an mRNA expressing a protein, e.g., human erythropoietin (hEPO) or luciferase. A control composition including PBS may also be employed.
Upon administration of nanoparticle compositions to an animal, dose delivery profiles, dose responses, and toxicity of particular formulations and doses thereof can be measured by enzyme-linked immunosorbent assays (ELISA), bioluminescent imaging, or other methods. For nanoparticle compositions including mRNA, time courses of protein expression can also be evaluated. Samples collected from the animals for evaluation may include blood, sera, and tissue (for example, muscle tissue from the site of an intramuscular injection and internal tissue); sample collection may involve sacrifice of the animals.
ELISA test kits may provide hEPO concentrations in milli International Units per mL (mIU/mL), e.g., per mL of tested serum. Typically, the EPO concentration of unknown sample is calculated from a calibration curve. Standards (used for the calibration curve) are calibrated according to the 2. IRP WHO preparation. In some embodiments, mIU/mL corresponds to […]. Nanoparticle compositions including mRNA are useful in the evaluation of the efficacy and usefulness of various formulations for the delivery of therapeutic and/or prophylactic agents. Higher levels of protein expression induced by administration of a composition including an mRNA will be indicative of higher mRNA translation and/or nanoparticle composition mRNA delivery efficiencies. As the non-RNA components are not thought to affect translational machineries themselves, a higher level of protein expression is likely indicative of a higher efficiency of delivery of the therapeutic and/or prophylactic agent by a given nanoparticle composition relative to other nanoparticle compositions or the absence thereof.
In some embodiments, an in vivo expression assay may be used to assess potency of expression of lipids of the disclosure. In some embodiments, the protein expression (hEPO) may be measured in mice following administration of a nanoparticle comprising a lipid of the disclosure (e.g., a loaded LNP). In some embodiments, lipid nanoparticles of the instant disclosure may be intravenously administered to mice (e.g., CD-1 mice).
In some embodiments, the concentration of hEPO in serum may be tested after administration (e.g., about six hours after injection). In some embodiments, residual levels of the lipids of the disclosure in organs or tissue of the subject after administration (e.g., 6 h, 12 h, 18 h, 24 h, 36h, or 48 h after administration) are measured. In some embodiments, the residual levels of the lipids of the disclosure in the liver are measured. In some embodiments, an in vitro expression assay may be used to assess nanoparticles of the disclosure. In some embodiments, cells (e.g., HeLa) may be plated in an imaging plate (e.g., poly-D-lysine coated) and cultured in serum (e.g., human serum, mouse serum, cynomolgus monkey serum or fetal bovine serum). In some embodiments, lipid nanoparticles of the disclosure comprising an mRNA expressing fluorescent protein (e.g., green fluorescent protein (GFP)) and a fluorescent lipid (e.g., rhodamine-DOPE) may be added to the plate and the plate imaged for uptake and expression. In some embodiments, expression may be evaluated by measuring fluorescence (e.g., from GFP). […]

[4] = mRNA encapsulation by the LNP (% EE, total mRNA in TX); assay type: physicochemical; conditions: LNP lipid:PEG-1:DSPC:Cholesterol 48:2:11:39, hEPO mRNA
Description: For nanoparticle compositions including an RNA, a QUANT-IT™ RIBOGREEN® RNA assay (Invitrogen Corporation Carlsbad, CA) can be used to evaluate the encapsulation of an RNA by the nanoparticle composition. The samples are diluted to a concentration of approximately 5 μg/mL in a TE buffer solution (10 mM Tris-HCl, 1 mM EDTA, pH 7.5). 50 μL of the diluted samples are transferred to a polystyrene 96 well plate and either 50 μL of TE buffer or 50 μL of a 2% Triton X-100 solution is added to the wells. The plate is incubated at a temperature of 37° C. for 15 minutes. The RIBOGREEN® reagent is diluted 1:100 in TE buffer, and 100 μL of this solution is added to each well. The fluorescence intensity can be measured using a fluorescence plate reader (Wallac Victor 1420 Multilablel Counter; Perkin Elmer, Waltham, MA) at an excitation wavelength of, for example, about 480 nm and an emission wavelength of, for example, about 520 nm. The fluorescence values of the reagent blank are subtracted from that of each of the samples and the percentage of free RNA is determined by dividing the fluorescence intensity of the intact sample (without addition of Triton X-100) by the fluorescence value of the disrupted sample (caused by the addition of Triton X-100).
The efficiency of encapsulation of a therapeutic and/or prophylactic agent describes the amount of therapeutic and/or prophylactic agent that is encapsulated or otherwise associated with an LNP after preparation, relative to the initial amount provided. The encapsulation efficiency is desired to be high (e.g., close to 100%). The encapsulation efficiency may be measured, for example, by comparing the amount of therapeutic and/or prophylactic agent in a solution containing a loaded LNP before and after breaking up the loaded LNP with one or more organic solvents or detergents. Fluorescence may be used to measure the amount of free therapeutic and/or prophylactic agent (e.g., RNA) in a solution. For the loaded LNPs formulated with lipids of the disclosure, the encapsulation efficiency of a therapeutic and/or prophylactic agent is at least 50%, for example 50%, 55%, 60%, 65%, 70%, 75%, 80%, 85%, 90%, 91%, 92%, 93%, 94%, 95%, 96%, 97%, 98%, 99%, or 100%. In some embodiments, the encapsulation efficiency is at least 80%. In some embodiments, the encapsulation efficiency is at least 90%. In some embodiments, the encapsulation efficiency of the therapeutic and/or prophylactic agent is between 80% and 100%.
as §1, §2

[5] = Table 3A groups 1-8, ratio to L5 LNP
[6] = Table 3B groups 1A-8A, ratio to L5 LNP

Structure (SMILES) | Endotoxin (EU/mL) [1] | PDI [2] | Size (nm) [2] | pH (pH of LNP formulation) | Osmolality (mOsm/kg) [3] | 6 hr protein expression ratio cf. L5 (hEPO protein expression; [5]) | 6 hr protein expression ratio cf. L5 (hEPO protein expression; [6]) | 24 hr protein expression ratio cf. L5 (hEPO protein expression; [5]) | 24 hr protein expression ratio cf. L5 (hEPO protein expression; [6]) | % EE [4]
CCCCCCCCC(CC)OC(=O)CCCCCCCN(CCCCCCCC(=O)OC(CCCCCCCC)CCCCCCCC)CCCNc1c(NC)c(=O)c1=O (stereo not drawn) [Compound L5, reference compound] | 2 EU/mL | 0.117 and 0.119 | 60.4 nm and 59.9 nm | 7.456 | 313 mOsm/kg and 320 mOsm/kg | 1.0 | 1.00 | 1.0 | 1.00 | 95.2% and 96.1%
CCCCCCCCC(CCCCCCCC)OC(=O)CCCCCCCN(CCCCCCC(C(=O)OCCCCCC)C(=O)OCCCCCC)CCCNC(=O)C1CC1 [Compound M6, Dihexyl 2-(6-((3-(cyclopropanecarboxamido)propyl)(8-(heptadecan-9-yloxy)-8-oxooctyl)amino)hexyl)malonate] | <2 EU/mL | 0.418 | 104.9 nm | 7.450 | 317 mOsm/kg |  | 0.82 |  | 0.81 | 67.8%
